What was measured:
Assay in all cases: KINOMEscan kinase profiling
Format in all cases: binding
CSNK1A1L = molecular target: T1, CSNK1A1L (Homo sapiens, UniProt Q8N752); conditions: read-out: %Inhibition by 10 μM SPA70
T1 construct: purchased DiscoverX (Ambit Biosciences) KINOMEscan
Summary of the method: (§1)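 KINOMEscan profiling followed a published protocol. Kinases whose inhibition exceeded a set cut-off were then tested in a dilution series beginning at 30 µM.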

EPHB6 = molecular target: T2, EPHB6 (Homo sapiens, UniProt O15197); conditions: read-out: %Inhibition by 10 μM SPA70
T2 construct: purchased DiscoverX (Ambit Biosciences) KINOMEscan
Summary of the method: as §1

CAMK2G = molecular target: T3, CAMK2G (Homo sapiens, UniProt Q13555); conditions: read-out: %Inhibition by 10 μM SPA70
T3 construct: purchased DiscoverX (Ambit Biosciences) KINOMEscan
Summary of the method: as §1

MAP4K4 = molecular target: T4, MAP4K4 (Homo sapiens, UniProt O95819); conditions: read-out: %Inhibition by 10 μM SPA70
T4 construct: purchased DiscoverX (Ambit Biosciences) KINOMEscan
Summary of the method: as §1

PRKCD = molecular target: T5, PRKCD (Homo sapiens, UniProt Q05655); conditions: read-out: %Inhibition by 10 μM SPA70
T5 construct: purchased DiscoverX (Ambit Biosciences) KINOMEscan
Summary of the method: as §1

PAK2 = molecular target: T6, PAK2 (Homo sapiens, UniProt Q13177); conditions: read-out: %Inhibition by 10 μM SPA70
T6 construct: purchased DiscoverX (Ambit Biosciences) KINOMEscan
Summary of the method: as §1

AKT3 = molecular target: T7, AKT3 (Homo sapiens, UniProt Q9Y243); conditions: read-out: %Inhibition by 10 μM SPA70
T7 construct: purchased DiscoverX (Ambit Biosciences) KINOMEscan
Summary of the method: as §1

BMPR2 = molecular target: T8, BMPR2 (Homo sapiens, UniProt Q13873)
T8 construct: purchased DiscoverX (Ambit Biosciences) KINOMEscan
Summary of the method: as §1

LCK = molecular target: T9, LCK (Homo sapiens, UniProt P06239); conditions: read-out: %Inhibition by 10 μM SPA70
T9 construct: purchased DiscoverX (Ambit Biosciences) KINOMEscan
Summary of the method: as §1

S6K1 = molecular target: T10, S6K1 (Homo sapiens, UniProt P23443); conditions: read-out: %Inhibition by 10 μM SPA70
T10 construct: purchased DiscoverX (Ambit Biosciences) KINOMEscan
Summary of the method: as §1

[1] = molecular target: T11, JAK3(JH1domain-catalytic) (Homo sapiens, UniProt P52333); conditions: read-out: %Inhibition by 10 μM SPA70
T11 construct: JAK3(JH1domain-catalytic); purchased DiscoverX (Ambit Biosciences) KINOMEscan
Summary of the method: as §1

ACVR2B = molecular target: T12, ACVR2B (Homo sapiens, UniProt Q13705)
T12 construct: purchased DiscoverX (Ambit Biosciences) KINOMEscan
Summary of the method: as §1

PCTK2 = molecular target: T13, PCTK2 (Homo sapiens, UniProt Q00537); conditions: read-out: %Inhibition by 10 μM SPA70
T13 construct: purchased DiscoverX (Ambit Biosciences) KINOMEscan
Summary of the method: as §1

TTK = molecular target: T14, TTK (Homo sapiens, UniProt P33981); conditions: read-out: %Inhibition by 10 μM SPA70
T14 construct: purchased DiscoverX (Ambit Biosciences) KINOMEscan
Summary of the method: as §1

HIPK1 = molecular target: T15, HIPK1 (Homo sapiens, UniProt Q86Z02); conditions: read-out: %Inhibition by 10 μM SPA70
T15 construct: purchased DiscoverX (Ambit Biosciences) KINOMEscan
Summary of the method: as §1

GRK7 = molecular target: T16, GRK7 (Homo sapiens, UniProt Q8WTQ7); conditions: read-out: %Inhibition by 10 μM SPA70
T16 construct: purchased DiscoverX (Ambit Biosciences) KINOMEscan
Summary of the method: as §1

GSK3A = molecular target: T17, GSK3A (Homo sapiens, UniProt P49840)
T17 construct: purchased DiscoverX (Ambit Biosciences) KINOMEscan
Summary of the method: as §1

AURKC = molecular target: T18, AURKC (Homo sapiens, UniProt Q9UQB9); conditions: read-out: %Inhibition by 10 μM SPA70
T18 construct: purchased DiscoverX (Ambit Biosciences) KINOMEscan
Summary of the method: as §1

WEE1 = molecular target: T19, WEE1 (Homo sapiens, UniProt P30291); conditions: read-out: %Inhibition by 10 μM SPA70
T19 construct: purchased DiscoverX (Ambit Biosciences) KINOMEscan
Summary of the method: as §1

MAP3K2 = molecular target: T20, MAP3K2 (Homo sapiens, UniProt Q9Y2U5); conditions: read-out: %Inhibition by 10 μM SPA70
T20 construct: purchased DiscoverX (Ambit Biosciences) KINOMEscan
Summary of the method: as §1

BIKE = molecular target: T21, BIKE (Homo sapiens, UniProt Q9NSY1); conditions: read-out: %Inhibition by 10 μM SPA70
T21 construct: purchased DiscoverX (Ambit Biosciences) KINOMEscan
Summary of the method: as §1

CHEK1 = molecular target: T22, CHEK1 (Homo sapiens, UniProt O14757)
T22 construct: purchased DiscoverX (Ambit Biosciences) KINOMEscan
Summary of the method: as §1

ROS1 = molecular target: T23, ROS1 (Homo sapiens, UniProt P08922); conditions: read-out: %Inhibition by 10 μM SPA70
T23 construct: purchased DiscoverX (Ambit Biosciences) KINOMEscan
Summary of the method: as §1

BMPR1B = molecular target: T24, BMPR1B (Homo sapiens, UniProt O00238); conditions: read-out: %Inhibition by 10 μM SPA70
T24 construct: purchased DiscoverX (Ambit Biosciences) KINOMEscan
Summary of the method: as §1

TEC = molecular target: T25, TEC (Homo sapiens, UniProt P42680); conditions: read-out: %Inhibition by 10 μM SPA70
T25 construct: purchased DiscoverX (Ambit Biosciences) KINOMEscan
Summary of the method: as §1

PKN1 = molecular target: T26, PKN1 (Homo sapiens, UniProt Q16512); conditions: read-out: %Inhibition by 10 μM SPA70
T26 construct: purchased DiscoverX (Ambit Biosciences) KINOMEscan
Summary of the method: as §1

TAOK2 = molecular target: T27, TAOK2 (Homo sapiens, UniProt Q9UL54); conditions: read-out: %Inhibition by 10 μM SPA70
T27 construct: purchased DiscoverX (Ambit Biosciences) KINOMEscan
Summary of the method: as §1

MAST1 = molecular target: T28, MAST1 (Homo sapiens, UniProt Q9Y2H9); conditions: read-out: %Inhibition by 10 μM SPA70
T28 construct: purchased DiscoverX (Ambit Biosciences) KINOMEscan
Summary of the method: as §1

JNK2 = molecular target: T29, JNK2 (Homo sapiens, UniProt P45984)
T29 construct: purchased DiscoverX (Ambit Biosciences) KINOMEscan
Summary of the method: as §1

SRPK1 = molecular target: T30, SRPK1 (Homo sapiens, UniProt Q96SB4); conditions: read-out: %Inhibition by 10 μM SPA70
T30 construct: purchased DiscoverX (Ambit Biosciences) KINOMEscan
Summary of the method: as §1

[2] = molecular target: T31, RPS6KA5(Kin.Dom.2-C-terminal) (Homo sapiens, UniProt O75582); conditions: read-out: %Inhibition by 10 μM SPA70
T31 construct: RPS6KA5(Kin.Dom.2-C-terminal); purchased DiscoverX (Ambit Biosciences) KINOMEscan
Summary of the method: as §1

NIM1 = molecular target: T32, NIM1 (Homo sapiens, UniProt Q8IY84); conditions: read-out: %Inhibition by 10 μM SPA70
T32 construct: purchased DiscoverX (Ambit Biosciences) KINOMEscan
Summary of the method: as §1

DMPK2 = molecular target: T33, DMPK2 (Homo sapiens, UniProt Q6DT37); conditions: read-out: %Inhibition by 10 μM SPA70
T33 construct: purchased DiscoverX (Ambit Biosciences) KINOMEscan
Summary of the method: as §1

DDR2 = molecular target: T34, DDR2 (Homo sapiens, UniProt Q16832); conditions: read-out: %Inhibition by 10 μM SPA70
T34 construct: purchased DiscoverX (Ambit Biosciences) KINOMEscan
Summary of the method: as §1

PIP5K1A = molecular target: T35, PIP5K1A (Homo sapiens, UniProt Q99755); conditions: read-out: %Inhibition by 10 μM SPA70
T35 construct: purchased DiscoverX (Ambit Biosciences) KINOMEscan
Summary of the method: as §1

DRAK1 = molecular target: T36, DRAK1 (Homo sapiens, UniProt Q9UEE5); conditions: read-out: %Inhibition by 10 μM SPA70
T36 construct: purchased DiscoverX (Ambit Biosciences) KINOMEscan
Summary of the method: as §1

TNK2 = molecular target: T37, TNK2 (Homo sapiens, UniProt Q07912); conditions: read-out: %Inhibition by 10 μM SPA70
T37 construct: purchased DiscoverX (Ambit Biosciences) KINOMEscan
Summary of the method: as §1

CDKL1 = molecular target: T38, CDKL1 (Homo sapiens, UniProt Q00532); conditions: read-out: %Inhibition by 10 μM SPA70
T38 construct: purchased DiscoverX (Ambit Biosciences) KINOMEscan
Summary of the method: as §1

RIPK1 = molecular target: T39, RIPK1 (Homo sapiens, UniProt Q13546); conditions: read-out: %Inhibition by 10 μM SPA70
T39 construct: purchased DiscoverX (Ambit Biosciences) KINOMEscan
Summary of the method: as §1

MKNK2 = molecular target: T40, MKNK2 (Homo sapiens, UniProt Q9HBH9); conditions: read-out: %Inhibition by 10 μM SPA70
T40 construct: purchased DiscoverX (Ambit Biosciences) KINOMEscan
Summary of the method: as §1

CSNK1A1 = molecular target: T41, CSNK1A1 (Homo sapiens, UniProt P48729); conditions: read-out: %Inhibition by 10 μM SPA70
T41 construct: purchased DiscoverX (Ambit Biosciences) KINOMEscan
Summary of the method: as §1

T17 sequence (P49840 whole entry): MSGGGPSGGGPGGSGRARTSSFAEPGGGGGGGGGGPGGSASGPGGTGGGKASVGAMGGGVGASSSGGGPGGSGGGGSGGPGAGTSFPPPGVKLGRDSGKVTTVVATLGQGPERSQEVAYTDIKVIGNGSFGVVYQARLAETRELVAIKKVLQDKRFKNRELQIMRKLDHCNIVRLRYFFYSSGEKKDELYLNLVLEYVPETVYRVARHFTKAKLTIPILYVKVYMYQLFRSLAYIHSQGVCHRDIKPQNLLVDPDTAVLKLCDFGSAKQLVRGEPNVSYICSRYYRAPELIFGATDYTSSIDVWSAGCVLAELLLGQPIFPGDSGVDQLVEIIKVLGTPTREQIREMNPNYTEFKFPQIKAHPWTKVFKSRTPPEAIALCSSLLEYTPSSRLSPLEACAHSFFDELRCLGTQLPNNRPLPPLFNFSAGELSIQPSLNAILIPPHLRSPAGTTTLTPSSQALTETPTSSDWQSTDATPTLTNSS
T15 sequence (Q86Z02 whole entry): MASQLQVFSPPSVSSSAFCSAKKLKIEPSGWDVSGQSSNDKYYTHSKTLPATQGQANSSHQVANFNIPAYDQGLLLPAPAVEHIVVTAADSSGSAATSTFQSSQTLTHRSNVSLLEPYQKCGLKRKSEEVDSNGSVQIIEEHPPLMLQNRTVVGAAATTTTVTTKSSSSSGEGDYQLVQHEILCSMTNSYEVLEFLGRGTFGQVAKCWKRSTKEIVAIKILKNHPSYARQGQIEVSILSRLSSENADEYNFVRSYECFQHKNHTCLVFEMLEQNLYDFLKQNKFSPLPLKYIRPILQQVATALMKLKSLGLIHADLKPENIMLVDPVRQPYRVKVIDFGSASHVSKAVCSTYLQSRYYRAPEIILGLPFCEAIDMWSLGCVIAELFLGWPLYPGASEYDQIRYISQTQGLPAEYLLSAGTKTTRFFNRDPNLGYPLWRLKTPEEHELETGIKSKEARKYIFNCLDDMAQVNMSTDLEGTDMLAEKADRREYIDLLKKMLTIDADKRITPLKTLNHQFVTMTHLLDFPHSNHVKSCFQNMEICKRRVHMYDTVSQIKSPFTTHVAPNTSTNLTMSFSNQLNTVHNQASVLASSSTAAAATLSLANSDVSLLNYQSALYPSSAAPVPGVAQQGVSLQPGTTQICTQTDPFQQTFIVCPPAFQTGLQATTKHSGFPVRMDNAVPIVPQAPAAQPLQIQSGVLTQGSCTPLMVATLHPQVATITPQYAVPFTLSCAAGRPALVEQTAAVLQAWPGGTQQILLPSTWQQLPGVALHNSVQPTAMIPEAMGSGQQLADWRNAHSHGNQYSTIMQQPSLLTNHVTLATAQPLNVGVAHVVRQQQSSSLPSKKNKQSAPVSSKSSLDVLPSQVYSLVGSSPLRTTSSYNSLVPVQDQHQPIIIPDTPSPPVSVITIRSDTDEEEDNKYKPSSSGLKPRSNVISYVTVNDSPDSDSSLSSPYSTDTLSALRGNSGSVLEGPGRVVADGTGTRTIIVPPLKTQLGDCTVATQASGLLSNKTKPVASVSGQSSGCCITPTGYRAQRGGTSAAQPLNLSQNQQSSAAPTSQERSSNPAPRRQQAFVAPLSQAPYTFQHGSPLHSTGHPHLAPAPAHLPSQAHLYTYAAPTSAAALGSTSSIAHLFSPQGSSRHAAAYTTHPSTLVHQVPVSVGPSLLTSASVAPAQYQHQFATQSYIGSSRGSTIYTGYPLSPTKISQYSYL
T7 sequence (Q9Y243 whole entry): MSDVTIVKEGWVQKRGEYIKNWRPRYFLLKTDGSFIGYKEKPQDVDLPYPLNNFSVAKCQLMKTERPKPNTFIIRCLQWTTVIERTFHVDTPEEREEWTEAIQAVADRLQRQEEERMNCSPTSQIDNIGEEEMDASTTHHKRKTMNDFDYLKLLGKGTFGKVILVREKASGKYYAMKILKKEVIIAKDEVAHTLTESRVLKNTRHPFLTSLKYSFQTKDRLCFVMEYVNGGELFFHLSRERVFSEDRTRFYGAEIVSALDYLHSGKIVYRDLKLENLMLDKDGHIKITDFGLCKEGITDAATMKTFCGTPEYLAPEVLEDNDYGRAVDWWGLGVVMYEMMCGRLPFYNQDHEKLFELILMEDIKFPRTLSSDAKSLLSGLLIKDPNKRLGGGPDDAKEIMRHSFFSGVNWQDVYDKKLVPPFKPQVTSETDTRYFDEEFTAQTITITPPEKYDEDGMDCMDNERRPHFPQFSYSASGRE
T18 sequence (Q9UQB9 whole entry): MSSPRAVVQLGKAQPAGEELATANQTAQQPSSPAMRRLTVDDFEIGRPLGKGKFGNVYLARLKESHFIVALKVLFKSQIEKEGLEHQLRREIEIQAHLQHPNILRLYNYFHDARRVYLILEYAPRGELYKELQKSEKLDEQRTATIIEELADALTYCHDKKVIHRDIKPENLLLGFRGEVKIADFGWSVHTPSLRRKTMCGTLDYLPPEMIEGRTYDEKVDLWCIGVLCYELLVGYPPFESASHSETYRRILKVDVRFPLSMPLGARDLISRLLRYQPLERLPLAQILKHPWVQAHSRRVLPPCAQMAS
T30 sequence (Q96SB4 whole entry): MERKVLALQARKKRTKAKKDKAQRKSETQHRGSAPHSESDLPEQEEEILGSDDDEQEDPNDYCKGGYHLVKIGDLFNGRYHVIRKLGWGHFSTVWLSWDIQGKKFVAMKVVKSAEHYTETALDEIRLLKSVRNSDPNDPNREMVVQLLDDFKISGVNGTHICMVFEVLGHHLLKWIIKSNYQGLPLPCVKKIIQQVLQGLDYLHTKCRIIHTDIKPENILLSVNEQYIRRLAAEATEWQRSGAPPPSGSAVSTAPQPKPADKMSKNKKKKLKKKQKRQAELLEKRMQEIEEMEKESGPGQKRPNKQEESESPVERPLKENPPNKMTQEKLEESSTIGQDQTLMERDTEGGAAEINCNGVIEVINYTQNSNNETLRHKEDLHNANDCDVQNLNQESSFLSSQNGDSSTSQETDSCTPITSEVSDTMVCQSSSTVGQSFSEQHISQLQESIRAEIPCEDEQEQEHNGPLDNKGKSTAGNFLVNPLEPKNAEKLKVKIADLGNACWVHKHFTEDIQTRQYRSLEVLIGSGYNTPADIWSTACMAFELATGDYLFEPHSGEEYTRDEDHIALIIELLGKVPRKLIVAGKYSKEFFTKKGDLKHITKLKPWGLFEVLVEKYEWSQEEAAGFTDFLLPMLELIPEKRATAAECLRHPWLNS
T14 sequence (P33981 whole entry): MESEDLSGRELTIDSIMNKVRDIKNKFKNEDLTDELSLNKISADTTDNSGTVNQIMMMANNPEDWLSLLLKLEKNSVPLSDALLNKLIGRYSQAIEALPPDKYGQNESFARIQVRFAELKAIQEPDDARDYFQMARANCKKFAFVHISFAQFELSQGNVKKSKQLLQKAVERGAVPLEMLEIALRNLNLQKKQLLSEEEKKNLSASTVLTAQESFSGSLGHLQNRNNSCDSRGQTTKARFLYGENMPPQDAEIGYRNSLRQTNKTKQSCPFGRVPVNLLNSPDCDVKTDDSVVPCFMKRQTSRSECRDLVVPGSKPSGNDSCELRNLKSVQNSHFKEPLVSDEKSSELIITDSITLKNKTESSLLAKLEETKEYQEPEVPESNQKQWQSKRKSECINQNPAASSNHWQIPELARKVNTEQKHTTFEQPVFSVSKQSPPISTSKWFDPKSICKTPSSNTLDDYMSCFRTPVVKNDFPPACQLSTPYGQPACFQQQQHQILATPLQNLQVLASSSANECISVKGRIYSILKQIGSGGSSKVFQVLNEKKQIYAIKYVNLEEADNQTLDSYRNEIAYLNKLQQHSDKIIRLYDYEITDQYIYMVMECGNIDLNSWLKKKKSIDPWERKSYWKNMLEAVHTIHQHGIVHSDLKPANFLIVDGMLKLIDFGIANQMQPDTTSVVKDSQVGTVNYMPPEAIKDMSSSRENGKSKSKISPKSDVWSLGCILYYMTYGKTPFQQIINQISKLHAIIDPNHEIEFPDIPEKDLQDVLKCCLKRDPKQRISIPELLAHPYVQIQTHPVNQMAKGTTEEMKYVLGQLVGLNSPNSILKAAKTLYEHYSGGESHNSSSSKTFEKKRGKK
T34 sequence (Q16832 22-855): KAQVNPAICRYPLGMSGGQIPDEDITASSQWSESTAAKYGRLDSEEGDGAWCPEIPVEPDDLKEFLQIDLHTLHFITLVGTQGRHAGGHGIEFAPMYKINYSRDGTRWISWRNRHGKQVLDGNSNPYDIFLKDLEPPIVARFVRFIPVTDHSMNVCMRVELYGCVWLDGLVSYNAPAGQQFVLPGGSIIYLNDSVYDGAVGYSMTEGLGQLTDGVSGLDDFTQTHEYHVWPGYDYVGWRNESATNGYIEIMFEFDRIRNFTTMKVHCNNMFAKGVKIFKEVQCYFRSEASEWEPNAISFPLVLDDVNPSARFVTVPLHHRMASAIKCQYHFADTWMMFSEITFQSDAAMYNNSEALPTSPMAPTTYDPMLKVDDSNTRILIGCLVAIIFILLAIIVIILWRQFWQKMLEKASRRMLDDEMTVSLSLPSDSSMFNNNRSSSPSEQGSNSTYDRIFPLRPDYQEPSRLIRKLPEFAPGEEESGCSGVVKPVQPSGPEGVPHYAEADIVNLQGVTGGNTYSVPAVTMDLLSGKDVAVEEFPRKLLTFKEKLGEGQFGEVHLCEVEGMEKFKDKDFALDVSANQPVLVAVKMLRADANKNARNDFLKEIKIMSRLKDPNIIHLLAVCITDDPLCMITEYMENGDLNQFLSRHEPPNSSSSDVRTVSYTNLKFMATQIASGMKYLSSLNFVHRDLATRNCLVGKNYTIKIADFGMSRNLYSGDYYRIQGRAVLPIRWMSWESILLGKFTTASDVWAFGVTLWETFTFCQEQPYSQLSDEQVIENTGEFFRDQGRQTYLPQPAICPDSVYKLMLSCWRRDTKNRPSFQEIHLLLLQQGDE

Compound: COc1ccc(OC)c(-n2nnc(S(=O)(=O)c3ccc(C(C)(C)C)cc3)c2C)c1 [SPA70]
- inhibition at 10 µM (CSNK1A1L): 0%
- inhibition at 10 µM (EPHB6): 0%
- inhibition at 10 µM (CAMK2G): 1%
- inhibition at 10 µM (MAP4K4): 0%
- inhibition at 10 µM (PRKCD): 5%
- inhibition at 10 µM (PAK2): 0%
- inhibition at 10 µM (AKT3): 0%
- %Inhibition by 10 μM SPA70 (BMPR2): 10%
- inhibition at 10 µM (LCK): 2%
- inhibition at 10 µM (S6K1): 13%
- inhibition at 10 µM [1]: 5%
- %Inhibition by 10 μM SPA70 (ACVR2B): 0%
- inhibition at 10 µM (PCTK2): 0%
- inhibition at 10 µM (TTK): 0%
- inhibition at 10 µM (HIPK1): 32%
- inhibition at 10 µM (GRK7): 0%
- %Inhibition by 10 μM SPA70 (GSK3A): not inhibited
- inhibition at 10 µM (GSK3A; read-out: %Inhibition by 10 μM SPA70): 0%
- inhibition at 10 µM (AURKC): 2%
- inhibition at 10 µM (WEE1): 0%
- inhibition at 10 µM (MAP3K2): 15%
- inhibition at 10 µM (BIKE): 35%
- %Inhibition by 10 μM SPA70 (CHEK1): 8%
- inhibition at 10 µM (ROS1): 5%
- inhibition at 10 µM (BMPR1B): 0%
- inhibition at 10 µM (TEC): 0%
- inhibition at 10 µM (PKN1): 0%
- inhibition at 10 µM (TAOK2): 21%
- inhibition at 10 µM (MAST1): 0%
- %Inhibition by 10 μM SPA70 (JNK2): 0%
- inhibition at 10 µM (SRPK1): 0%
- inhibition at 10 µM [2]: 37%
- inhibition at 10 µM (NIM1): 4%
- inhibition at 10 µM (DMPK2): 3%
- inhibition at 10 µM (DDR2): 0%
- inhibition at 10 µM (PIP5K1A): 0%
- inhibition at 10 µM (DRAK1): 7%
- inhibition at 10 µM (TNK2): 0%
- inhibition at 10 µM (CDKL1): 9%
- inhibition at 10 µM (RIPK1): 0%
- inhibition at 10 µM (MKNK2): 6%
- inhibition at 10 µM (CSNK1A1): 1%

From publication PMC5622171 (Nature Communications, 2017)
